# Results reported in patent US9107909B2, “Materials and methods to enhance hematopoietic stem cells engraftment procedures” (priority 2008, dated 2015).
# “Also recorded” adds a separate entry of the source. Where a name gives a salt, the structure may show the parent alone.
# Assays:
# [1] = tested on: SKL cells; test: HSPC homing to bone marrow in vivo; design: species or system mouse; conditions: 10 microMolar AMD3100, cells incubated before homing assay; dihydrate
# Method: CD45.2 WBM was labeled with CFSE (Molecular Probes, Eugene, Oreg.) washed and treated on ice with either 1 microMolar dmPGE2 or vehicle. After treatment, cells were washed and 2×10^7 cells transplanted into lethally irradiated CD45.2 mice. After 16 hours, femurs and tibias were flushed, and a proportion of mouse marrow Lin^+ cells depleted using MACS microbeads (Miltenyi Biotech), stained with fluorochrome-conjugated-antibodies specific for biotin (lineage), c-kit (K), and Sca-1 (S) and the total number of CFSE^+ WBM (non lineage depleted), KL and SKL cells determined. For congenic homing studies, Lin^neg CD45.1 cells were treated on ice with 1 microMolar dmPGE2, vehicle, or PBS. After incubation, cells were washed and 2×10^6 cells transplanted into CD45.2 mice. After 16 hours, recipient bone marrow was harvested, lineage depleted, stained, and donor CD45.1 SKL cells determined. For competitive, head-to-head homing studies using sorted SKL cells, Lin^neg cells from CD45.2 and CD45.1 mice were FACS sorted, cells treated with either dmPGE2 or vehicle for 2 hours, washed and 3×10^4 CD45.1 (vehicle or dmPGE2 treated) plus 3×10^4 CD45.2 (dmPGE2 or vehicle treated) SKL cells transplanted into lethally irradiated F1 Hybrid mice. To evaluate the role of CXCR4 in homing studies, Lin^neg CD45.2 cells were treated on ice with vehicle or 1 microMolar dmPGE2 plus 10 microMolar AMD3100 (AnorMed Inc., Vancouver, BC, Canada) and 2×10^6 treated cells injected into lethally irradiated CD45.1 mice. Homed SKL cells were analyzed 16 hours post-transplant.
# Irrespective of its cause a marrow niche is required for HSPC to self-renew and differentiate and it is very likely that only HSPC homing to these niches can provide long-term repopulation. Referring now to FIG. 3A, in order to assess HSPC homing, CFSE labeled whole bone marrow (WBM) CD45.2 cells were pulsed with dmPGE2 or vehicle for 2 hours on ice, washed and injected IV in lethally irradiated CD45.2 hosts. After 16 hours, total CFSE^+ cells homing to bone marrow as well as the number of homed events within the KL and SKL cell populations were quantified.
# Highly purified SKL cells from both CD45.2 and CD45.1 mice were isolated by FACS sorting, treated with dmPGE2 or vehicle, and 3×10^4 vehicle-treated CD45.1 cells plus 3×10^4 dmPGE2-treated CD45.2 cells transplanted into CD45.1/CD45.2 mice. An additional cohort was concurrently transplanted with congenic strain and treatment groups were switched to test for any bias in strain homing. […] Although SKL cells are not a homogenous HSPC population, they are highly enriched for LTRC (Okada et al., 1992; Spangrude and Scollay, 1990).
# To evaluate the role of CXCR4 in homing, Lineage^neg CD45.2 cells were treated with vehicle or 1 microMolardmPGE2 plus 10 microMolar AMD3100, 2×10^6 treated cells injected into lethally-irradiated CD45.1 mice and homed SKL cells recovered 16 hours post-transplant and analyzed by FACS. Referring now to FIG. 11, homing efficiency of vehicle and dmPGE2 treated cells to bone marrow in the absence and presence of 10 microMolar AMD3100. Cells were incubated with AMD3100 for 30 minutes prior to the homing assay.
# [2] = tested on: CFU-GM; test: CFU-GM mobilization to peripheral blood in mice; format: in vivo, mouse; conditions: for CFU-GM / peripheral blood stem cell mobilization with G-CSF: co-administered with G-CSF, 4 days, vs G-CSF alone
# Method: Since PGE2 increases CXCR4 receptor expression and SDF-1/CXCR4 signalling is important for trafficking and retention of HSPC in the marrow. […] Data are expressed as mean±SEM CFU-GM mobilized per ml of blood for N=3 mice each assayed individually.
# Mice were given SC treatments of 150 microgram/kg indomethacin or 150 microgram/kg baicalein (lipoxygenase inhibitor) in gelatin every 48 hours with or without G-CSF for 4 days. CFU-GM mobilization was determined as previously described (Pelus et. al., Experimental Hematology 33 (2005) 295-307). […] Data are expressed as mean±SEM CFU-GM mobilized per ml of blood for N=3 mice each assayed.
# Referring now to FIG. 16, mice were given daily, bid SC injections with G-CSF (1 microgram per mouse) or G-CSF+indomethacin (50 microgram per mouse) for 4 days. CFU-GM mobilization was determined as described (Pelus et. al., Experimental Hematology 33 (2005) 295-307).
# Mice were given daily, bid SC injections with vehicle or Indomethacin (50 microgram per mouse) for four days. On day 5, mice were given either vehicle or AMD3100 (5 mg/kg). One hour later mice were sacrificed and CFU-GM mobilization was determined as previously described (Pelus et. al., Experimental Hematology 33 (2005) 295-307). […] Data are expressed as mean±SEM, n=5 mice per group, each assayed individually.
# Mice were mobilized with G-CSF and CFU-GM in PB was compared to mobilization regimens with G-CSF and the combination of various NSAIDS (Aspirin [COX-1 and COX-2]; Licofelone [COX-2 and 5-LOX]; SC-560 [COX-1]; Valeryl Salicylate [COX-1]; Valdecoxib [COX-2]; NS-398 [COX-2]). […] In order to test the efficacy of two commonly used COX inhibitors, mice were mobilized with G-CSF or the combination of G-CSF and aspirin or ibuprofen (PO., bid, 4 days). CFU-GM was determined as previously described. Referring now to FIG. 28, dose-response analysis of G-CSF+Aspirin and G-CSF+Ibuprofen mobilization of CFU-GM to peripheral blood are present in bar graph form for a control group of mice treated with only G-CSF; for mice treated with G-CSF plus 10, 20 or 40 milligram/kg of aspirin; and for mice treated with G-CSF plus 10, 20 or 40 milligram/kg of ibuprofen. Data are expressed as mean±SEM, n=4 mice per group, each assayed individually.
# [3] = tested on: mobilized PBMC; test: Competitive transplantation of mobilized PBMC; format: in vivo, mouse; conditions: co-administered with G-CSF without stagger, 12 weeks post transplant, vs G-CSF alone
# Description: Data are expressed as mean±SEM, n=5 mice per group, each assayed individually.
Structure (SMILES),effect of CXCR4 antagonist on SKL cell homing and on PGE2-enhanced homing [1],"baseline CFU-GM mobilization ([2]; 150 μg/kg SC, alone)",CFU-GM / peripheral blood stem cell mobilization with G-CSF [2],"increase in the number of mobilized progenitor cells (CFU-GM) ([2]; 150 μg/kg SC once daily for 4 days, alone) [fold]","HSPC (CFU-GM) mobilization in combination with AMD3100 ([2]; 50 microgram per mouse bid SC 4 days, AMD3100 5 mg/kg day 5)",CFU-GM / peripheral blood stem cell mobilization with G-CSF ([2]; listed as Indomethacin),engraftment (competitive repopulating units) of mobilized PBMC [3]
"c1cc(CN2CCCNCCNCCCNCC2)ccc1CN1CCCNCCNCCCNCC1 [AMD3100, 1,1′-[1,4-Phenylenebis(methylene)]bis[1,4,8,11-tetraazacyclotetradecane]octohydrobromide dihydrate]",reduced SKL cell homing and abrogated the improved homing efficiency; also recorded: significantly reduced,,,,,,
O=c1cc(-c2ccccc2)oc2cc(O)c(O)c(O)c12 [baicalein],,no effect,no effect,,,,
"COc1ccc2c(c1)c(CC(=O)O)c(C)n2C(=O)c1ccc(Cl)cc1 [indomethacin, 2-{1-[(4-chlorophenyl)carbonyl]-5-methoxy-2-methyl-1H-indol-3-yl}acetic acid]",,,highly synergistic increase; also recorded: larger fold increase,4,Mobilizes HSPC,synergistically mobilize; also recorded: synergistic effect,no improvement in engraftment
